Biological target: T1, human full-length MKNK1 (Homo sapiens, UniProt Q9BUB5, T385D)
T1 construct: purchased Carna Biosciences 02-145; host or cells: insect cells (baculovirus expression system)
Assay: MKNK1 kinase high ATP assay (TR-FRET)
Type: biochemical
Conditions: high ATP (2 mM final), 15 min preincubation with enzyme, GST-MKNK1 (T344D)
How it was run: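 GST-tagged full-length human MKNK1 from insect cells, preincubated 15 min with compound at 22° C in HEPES pH 7.5/MgCl2/DTT buffer, then reacted 30 min with 2 mM ATP and 0.06 μM biotinylated peptide (final). Phosphopeptide detected by TR-FRET (anti-pS6 pSer236/Eu-ProteinG, streptavidin-XL665), 665/620 ratio normalised to no-enzyme and no-inhibitor controls.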

T1 sequence (Q9BUB5 1-424 isoform Q9BUB5-2 T344D): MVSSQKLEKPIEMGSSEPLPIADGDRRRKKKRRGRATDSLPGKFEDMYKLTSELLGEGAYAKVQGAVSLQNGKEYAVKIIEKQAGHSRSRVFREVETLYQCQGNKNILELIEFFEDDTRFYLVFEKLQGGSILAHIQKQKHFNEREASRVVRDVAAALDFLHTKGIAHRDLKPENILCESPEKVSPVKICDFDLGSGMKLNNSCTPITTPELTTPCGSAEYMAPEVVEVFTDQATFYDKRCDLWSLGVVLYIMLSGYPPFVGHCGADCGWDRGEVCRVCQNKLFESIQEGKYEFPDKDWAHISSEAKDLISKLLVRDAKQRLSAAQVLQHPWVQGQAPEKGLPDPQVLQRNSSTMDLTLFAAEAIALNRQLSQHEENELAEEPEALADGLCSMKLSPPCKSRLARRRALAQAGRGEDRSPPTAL

SMILES	IC50 [nM]
CN(CCC(F)(F)F)C(=O)[C@H]1CCc2c(sc3ncnc(Nc4cc5cn[nH]c5nc4O)c23)C1 [Example 139, (7S)-4-[(6-Hydroxy-1H-pyrazolo[3,4-b]pyridin-5-yl)amino]-N-methyl-N-(3,3,3-trifluoropropyl)-5,6,7,8-tetrahydro[1]benzothieno[2,3-d]pyrimidine-7-carboxamide]	4.7
CN(C)C1CN(C(=O)[C@H]2CCc3c(sc4ncnc(Nc5cc6cn[nH]c6cn5)c34)C2)C1 [Example 140, 10 [3-(Dimethylamino)azetidin-1-yl][(7S)-4-(1H-pyrazolo[3,4-c]pyridin-5-ylamino)-5,6,7,8-tetrahydro[1]benzothieno[2,3-d]pyrimidin-7-yl]methanone]	2.4
CN(C)C1CN(C(=O)[C@H]2CCc3c(sc4ncnc(Nc5cnc6[nH]ncc6c5)c34)C2)C1 [Example 142, [3-(Dimethylamino)azetidin-1-yl][(7S)-4-(1H-pyrazolo[3,4-b]pyridin-5-ylamino)-5,6,7,8-tetrahydro[1]benzothieno[2,3-d]pyrimidin-7-yl]methanone]	11.8

The next lines start with the values.

IC50 [nM]	SMILES
203	CN(C)C(=O)CCN(C)C(=O)c1nc2c(Nc3cc4cn[nH]c4cn3)ncnc2s1 [Example 137, N-[3-(Dimethylamino)-3-oxopropyl]-N-methyl-7-(1H-pyrazolo[3,4-c]pyridin-5-ylamino)[1,3]thiazolo[5,4-d]pyrimidine-2-carboxamide]
114	COc1nc2[nH]ncc2cc1Nc1ncnc2sc(C(=O)N(C)CCC(=O)N(C)C)nc12 [Example 138, N-[3-(Dimethylamino)-3-oxopropyl]-7-[(6-methoxy-1H-pyrazolo[3,4-b]pyridin-5-yl)amino]-N-methyl[1,3]thiazolo[5,4-d]pyrimidine-2-carboxamide]
1.2	COc1nc2[nH]ncc2cc1Nc1ncnc2sc3c(c12)CC[C@H](C(=O)N1CC(N(C)C)C1)C3 [Example 141, [3-(Dimethylamino)azetidin-1-yl]{(7S)-4-[(6-methoxy-1H-pyrazolo[3,4-b]pyridin-5-yl)amino]-5,6,7,8-tetrahydro[1]benzothieno[2,3-d]pyrimidin-7-yl}methanone]

Source: US20160159789A1, “SUBSTITUTED PYRAZOLOPYRIDINES” (BAYER PHARMA AKTIENGESELLSCHAFT, priority 2013, published 2016)
